The results in this text go back to patent US11485742B2, “2-azaspiro[3.4]octane derivatives as M4 agonists” (NOVARTIS AG, priority 2019, dated 2022).

What is called EC50 is the concentration that produces a half-maximal response.

Test [1] concerns the target T1, human cloned CHRM4 receptor (Homo sapiens, UniProt P08173).
T1 construct: expressed in transfected cells; host or cells: CHO-K1 (M4_CHO)
T1 sequence (P08173 1-479): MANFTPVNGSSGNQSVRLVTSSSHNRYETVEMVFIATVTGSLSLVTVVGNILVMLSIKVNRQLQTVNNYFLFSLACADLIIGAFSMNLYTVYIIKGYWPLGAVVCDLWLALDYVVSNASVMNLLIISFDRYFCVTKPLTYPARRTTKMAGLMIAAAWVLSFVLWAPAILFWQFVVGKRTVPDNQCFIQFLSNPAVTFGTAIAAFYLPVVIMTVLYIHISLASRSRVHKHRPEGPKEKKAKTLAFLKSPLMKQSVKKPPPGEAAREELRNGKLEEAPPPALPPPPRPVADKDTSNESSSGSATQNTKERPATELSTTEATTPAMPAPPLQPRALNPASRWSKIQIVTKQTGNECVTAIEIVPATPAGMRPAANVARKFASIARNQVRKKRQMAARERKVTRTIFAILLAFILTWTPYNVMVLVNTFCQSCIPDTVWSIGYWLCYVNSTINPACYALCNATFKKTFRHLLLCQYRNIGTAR
As to the kind of experiment: CHRM4 Ca++ Flux Assay (M4_CHO cells, agonist mode). It is filed as cell-based. To be noted: for Emax / M4 FDSS PA %: Percent Activity (PA); for Emax: read-out: M4 FDSS PA %; for EC50: geometric mean if tested more than once, read-out: M4 FDSS EC50. On the procedure:
(§1) The above examples were characterized by measuring the intracellular mobilization of Ca^++ ions caused by signaling events mediated by the receptor. The Intra-cellular Calcium flux levels were captured by the highly sensitive Ca^++ indicator, Calcium Assay Kit (BD Biosciences; Catalog Number 640178. The fluorescent activity from all receptors were monitored by the fluorescent imager, FDSS 7000EX (Hamamatsu) over a span of 3 minutes. The change in Calcium flux was readily captured upon activation with the muscarinic orthosteric agonist, Carbachol.
CHO-K1 cells stably expressing the human cloned CHRM4 receptor (M4_CHO cells) were grown and maintained in a monolayer culture with F12/HAM (Life Technologies) supplemented with 10% Fetal Bovine Serum, 1X Pen-Strep, and 0.4 mg/mL Geneticin in a humidified atmosphere (5% CO2) at 37° C. The cultures were grown to 80-90% confluency in T150 flasks (Corning) and washed with 1×DPBS then lifted with 0.05% Trypsin (Life Technologies). The cells were harvested in growth media then spun (1K rpm, 3 minutes) and cryopreserved using Recovery Cell Culture Freezing Media (Gibco Technologies). Cells were stored in liquid nitrogen and thawed a day before the assay.
Prior to the day of the assay, stable M4_CHO cells were thawed and plated on 384 well black walled clear bottom TC treated plates (Greiner Cat #781091) at 12K cells/well using F12/HAM Media supplemented with 10% FBS (Life Technologies) and kept overnight in a humidified atmosphere (5% CO2) at 37° C. The next day, cells were loaded with 20 μL Ca^++ dye (BD Biosciences) using Loading Buffer (HBSS +Ca/+Mg, 20 mM HEPES, 2.5 mM Probenecid) and placed back in cell incubator for a minimum of 1 hour. After incubation, the dye was replaced with 45 μL Assay Buffer (HBSS −Ca/−Mg, 20 mM HEPES, 2.5 mM Probenecid) supplemented with 20 μM ATP (Sigma Aldrich) and kept at room temperature in the dark for 60 minutes before running on a cell imager. The FDSS 7000EX (Hamamatsu) was used to capture Ca^++ traces for a span of 3 minutes from cells treated with 11 point dose of compound in triplicate in order to generate dose response curves in agonist mode. All compounds were serially diluted in DMSO then prepared in Assay Buffer for Ca^++ flux studies. The dose response curves were generated from the average of triplicate wells obtained from each data point and used a non-linear regression of four parameter dose response algorithm. The Percent Activity (PA) was measured to EC100 of Carbachol.
(§2) If an Example was tested more than once in an assay, then the values below represent the geometric mean of the results from each independent experiment.

For test [2], the target named is T2, Cloned human M1 receptor (CHRM1) (Homo sapiens, UniProt P11229).
T2 construct: expressed in transfected cells; host or cells: HEK293
T2 sequence (P11229 1-460): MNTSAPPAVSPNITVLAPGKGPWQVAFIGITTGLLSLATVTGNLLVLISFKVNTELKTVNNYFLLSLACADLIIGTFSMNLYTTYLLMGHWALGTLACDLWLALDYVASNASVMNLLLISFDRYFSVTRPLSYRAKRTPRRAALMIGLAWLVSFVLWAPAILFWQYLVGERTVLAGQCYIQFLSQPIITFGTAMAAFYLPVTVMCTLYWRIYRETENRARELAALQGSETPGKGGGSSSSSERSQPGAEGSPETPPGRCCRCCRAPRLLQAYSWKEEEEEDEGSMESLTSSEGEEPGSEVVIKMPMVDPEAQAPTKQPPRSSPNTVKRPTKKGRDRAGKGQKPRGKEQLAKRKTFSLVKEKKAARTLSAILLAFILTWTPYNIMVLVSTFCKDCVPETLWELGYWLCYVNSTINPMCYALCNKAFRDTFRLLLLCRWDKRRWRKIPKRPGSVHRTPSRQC
Nature of the test: CHRM1 Ca++ Flux Assay (HEK293 M1 cells, agonist mode). To be noted: for Emax / M1 FDSS PA %: Percent Activity (PA); for Emax: read-out: M1 FDSS PA %; for EC50: geometric mean if tested more than once, read-out: M1 FDSS EC50. It is filed as cell-based. On the procedure: as §1
Cloned human M1 receptor (CHRM1) was stably expressed in HEK293 cells and were grown and maintained in a monolayer culture with DMEM/High Glucose (Life Technologies) supplemented with 10% Fetal Bovine Serum, 1×Pen-Strep, and 0.5 mg/mL Geneticin in a humidified atmosphere (5% CO2) at 37° C. The cultures were grown to 90% confluency in T150 flasks (Corning) and washed with 1×DPBS and lifted with 0.05% Trypsin (Life Technologies). The cells were then spun (1K rpm, 3 minutes) and frozen using Recovery Cell Culture Freezing Media (Gibco Technologies). Cells were stored in liquid nitrogen and thawed a day before the assay.
Prior to the day of the assay, stable HEK293 M1 cells were thawed and plated on 384 well black walled clear bottom TC treated plates (Greiner Cat #781091) at 25K cells/well with DMEM/High Glucose supplemented with 10% FBS (Hyclone) Pen-Strep (Life Technologies) and kept overnight in a humidified atmosphere (5% CO2) at 37° C. The following day, cells were loaded with 20 uL Ca^++ dye (BD Biosciences) using Loading Buffer (HBSS +Ca/+Mg, 20 mM HEPES) and placed back in cell incubator for a minimum of 1 hour. The dye was replaced with 45 μL Assay Buffer (HBSS −Ca/−Mg, 20 mM HEPES) and kept at room temperature prior to running on cell imager. Compounds were prepared in Assay Buffer and 5 uL was added to the cells. The FDSS 7000EX (Hamamatsu) was used to acquire Ca++ traces for 3 minutes from cells treated with 11 point dose in triplicate in order to generate dose response curves in agonist mode. All compounds were serially diluted in DMSO then prepared in Assay Buffer for Ca^++ flux studies. The dose response curves were generated from the average of triplicate wells obtained from each data point and used a non-linear regression of four parameter dose response algorithm. The Percent Activity (PA) was measured to EC100 of Carbachol.
as §2

Molecules are shown by their SMILES.

As to `Fc1ccc(C2CCOCC2)c(C2CCN([C@@H]3COC4(C3)CN(c3nnco3)C4)CC2)c1` [Example 3D, (S)-7-(4-(5-fluoro-2-(tetrahydro-2H-pyran-4-yl)phenyl)piperidin-1-yl)-2-(1,3,4-oxadiazol-2-yl)-5-oxa-2-azaspiro[3.4]octane], in test [1], the Emax worked out at 84% and the EC50 came to 63 nM. In test [2], the Emax came out at 75% and the EC50 worked out at 1410 nM.

As for `Fc1ccc(OC2CCOCC2)c(C2CCN([C@@H]3COC4(C3)CN(c3nncs3)C4)CC2)c1` [Example 5J, (S)-7-(4-(5-fluoro-2-((tetrahydro-2H-pyran-4-yl)oxy)phenyl)piperidin-1-yl)-2-(1,3,4-thiadiazol-2-yl)-5-oxa-2-azaspiro[3.4]octane], in test [1], the Emax turned out to be 92% and the EC50 is 29 nM. Moreover, in test [2], the Emax came to 6% and the EC50 turned out to be 1200 nM.

Turning to `CC1(C)C[C@@H](Oc2ccc(F)cc2C2CCN([C@@H]3COC4(C3)CN(c3nnco3)C4)CC2)CO1` (single isomer, unassigned) [Example 2N, (S)-7-(4-(2-(((R)-5,5-dimethyltetrahydrofuran-3-yl)oxy)-5-fluorophenyl)piperidin-1-yl)-2-(1,3,4-oxadiazol-2-yl)-5-oxa-2-azaspiro[3.4]octane or (S)-7-(4-(2-(((S)-5,5-dimethyltetrahydrofuran-3-yl)oxy)-5-fluorophenyl)piperidin-1-yl)-2-(1,3,4-oxadiazol-2-yl)-5-oxa-2-azaspiro[3.4]octane], in test [1], the “M4 FDSS PA %” value is 65% and the concentration for a half-maximal effect (EC50) is 289 nM. Further, in test [2], the “M1 FDSS PA %” value turned out to be 71% and the half-maximal effective concentration (EC50) turned out to be 5090 nM.

`C[C@H](Oc1ccc(F)cc1C1CCN([C@@H]2COC3(C2)CN(c2nnco2)C3)CC1)C1CCOCC1` (single isomer, unassigned) [Example 2Y, (S)-7-(4-(5-fluoro-2-((S)-1-(tetrahydro-2H-pyran-4-yl)ethoxy)phenyl)piperidin-1-yl)-2-(1,3,4-oxadiazol-2-yl)-5-oxa-2-azaspiro[3.4]octane or (S)-7-(4-(5-fluoro-2-((R)-1-(tetrahydro-2H-pyran-4-yl)ethoxy)phenyl)piperidin-1-yl)-2-(1,3,4-oxadiazol-2-yl)-5-oxa-2-azaspiro[3.4]octane]: in test [1], the “M4 FDSS PA %” value is recorded as 76% and the concentration for a half-maximal effect (EC50) was 554 nM. Also, in test [2], the “M1 FDSS PA %” value stood at 51% and the EC50 came out at 10800 nM.

With `c1ccc(C2CCN([C@@H]3COC4(C3)CN(c3ncco3)C4)CC2)c(O[C@H]2CCOC2)c1` [Example 4H, (S)-2-(oxazol-2-yl)-7-(4-(2-(((S)-tetrahydrofuran-3-yl)oxy)phenyl)piperidin-1-yl)-5-oxa-2-azaspiro[3.4]octane], the Emax in test [1] was 69%; in test [2], 63%. In addition, the EC50 stood at 17 nM in test [1] and 745 nM in test [2].

For the molecule `Fc1cc(OC2COC2)c(C2CCN([C@@H]3COC4(C3)CN(c3ncco3)C4)CC2)cc1F` [Example 4Q, (S)-7-(4-(4,5-difluoro-2-(oxetan-3-yloxy)phenyl)piperidin-1-yl)-2-(oxazol-2-yl)-5-oxa-2-azaspiro[3.4]octane], in test [1], the Emax worked out at 60% and the EC50 turned out to be 11 nM. Besides, in test [2], the Emax is 71% and the EC50 amounted to 294 nM.

In the case of `Fc1ccc(OC[C@H]2CCO2)c(C2CCN([C@@H]3COC4(C3)CN(c3nncs3)C4)CC2)c1.O=C(O)C(F)(F)F` (single isomer, unassigned) [Example 2D, (S)-7-(4-(5-fluoro-2-(((R)-oxetan-2-yl)methoxy)phenyl)piperidin-1-yl)-2-(1,3,4-thiadiazol-2-yl)-5-oxa-2-azaspiro[3.4]octane trifluoroacetate or (S)-7-(4-(5-fluoro-2-(((S)-oxetan-2-yl)methoxy)phenyl)piperidin-1-yl)-2-(1,3,4-thiadiazol-2-yl)-5-oxa-2-azaspiro[3.4]octane trifluoroacetate], in test [1], the “M4 FDSS PA %” value is 72% and the EC50 was found to be 20 nM. In test [2], the “M1 FDSS PA %” value was found to be 72% and the EC50 is 289 nM.

With `Fc1ccc([C@H]2CCOC2)c(C2CCN([C@@H]3COC4(C3)CN(c3nnco3)C4)CC2)c1` (single isomer, unassigned) [Example 3E, (S)-7-(4-(5-fluoro-2-((R)-tetrahydrofuran-3-yl)phenyl)piperidin-1-yl)-2-(1,3,4-oxadiazol-2-yl)-5-oxa-2-azaspiro[3.4]octane or (S)-7-(4-(5-fluoro-2-((S)-tetrahydrofuran-3-yl)phenyl)piperidin-1-yl)-2-(1,3,4-oxadiazol-2-yl)-5-oxa-2-azaspiro[3.4]octane], in test [1], the “M4 FDSS PA %” value is on record as 86% and the EC50 was found to be 28 nM. Besides, in test [2], the “M1 FDSS PA %” value amounted to 86% and the EC50 came to 695 nM.

With `Fc1ccc(O[C@H]2CCCOC2)c(C2CCN([C@@H]3COC4(C3)CN(c3nnco3)C4)CC2)c1` (single isomer, unassigned) [Example 2R, (S)-7-(4-(5-fluoro-2-(((S)-tetrahydro-2H-pyran-3-yl)oxy)phenyl)piperidin-1-yl)-2-(1,3,4-oxadiazol-2-yl)-5-oxa-2-azaspiro[3.4]octane or (S)-7-(4-(5-fluoro-2-(((R)-tetrahydro-2H-pyran-3-yl)oxy)phenyl)piperidin-1-yl)-2-(1,3,4-oxadiazol-2-yl)-5-oxa-2-azaspiro[3.4]octane], in test [1], the “M4 FDSS PA %” value worked out at 76% and the EC50 was 25 nM. Moreover, in test [2], the “M1 FDSS PA %” value amounted to 56% and the EC50 turned out to be 848 nM.
